{"source": "patent US11730723B2", "about": "“Compounds and methods for treating viral infections” (priority 2020, dated 2023)", "key": {"[1]": {"system": "HCoV-OC43", "experiment": "HCoV-OC43 CPE assay in Huh-7 cells (neutral red uptake, 6 days)", "type": "cell-based, human coronavirus (HCoV) OC43 strain", "conditions": "for Raw OD-Absorbance 490 nm: infected Huh-7, neutral red uptake, individual replicates"}, "[2]": {"system": "Huh-7 cells", "experiment": "Cytotoxicity / viability of uninfected Huh-7 cells (XTT, 6 days)", "conditions": "for Viability of Huh-7 Cells (A490): raw absorbance 490 nm; for Viability (A490): control"}, "[3]": {"experiment": "Cytotoxicity in HepG2 2.2.15 cells (MTS)", "type": "cell-based", "conditions": "human, same assay plate"}, "[4]": {"system": "HBV wild-type strain ayw1", "experiment": "Primary anti-HBV assay in HepG2 2.2.15 cells (qPCR of HBV DNA)", "conditions": "Hepatitis B virus, HepG2 2.2.15, 144 h"}, "[5]": {"system": "HCoV-OC43", "experiment": "HCoV-OC43 efficacy in H292 cells (MTT, 6 days)", "type": "cell-based, HCoV-OC43 (Betacoronavirus 1)", "conditions": "Betacoronavirus 1, OC43, NCI-H292, read-out: Efficacy"}, "[6]": {"system": "HCoV 229E", "experiment": "HCoV 229E CPE assay in MRC-5 cells (CellTiter Glo)", "type": "cell-based, human coronavirus (HCoV) 229E", "conditions": "unidentified human coronavirus, MRC5, read-out: HCoV 229E CPE assay EC50"}, "[7]": {"system": "HCoV OC43", "experiment": "HCoV OC43 CPE assay in Huh7 cells (CellTiter Glo)", "type": "cell-based, human coronavirus (HCoV) OC43", "conditions": "Betacoronavirus 1, OC43, Huh-7, read-out: HCoV OC43 CPE Assay EC50"}, "[8]": {"experiment": "Cytotoxicity on Huh7 cells (CellTiter Glo)", "conditions": "human"}, "[9]": {"system": "H292 cells (NCI-H292)", "experiment": "Cytotoxicity in uninfected H292 cells (MTT)", "conditions": "CC50, uninfected H292 cells"}, "[10]": {"experiment": "Cytotoxicity on MRC-5 cells (CellTiter Glo)", "conditions": "human"}, "[11]": {"system": "alpha coronavirus 229E (CoV-229E)", "experiment": "CoV-229E virus-induced CPE inhibition in MRC-5 cells (XTT)", "conditions": "6 days"}, "[12]": {"system": "MRC-5 cells", "experiment": "Cell viability of uninfected drug control MRC-5 cells (XTT), TC50", "conditions": "read-out: TC50, uninfected MRC-5 cells, 6 days"}, "[13]": {"system": "dengue virus (DENV) serotype 2 strain D2S221", "experiment": "Dengue virus D2S221 inhibition assay in Vero cells (immunostaining)", "conditions": "read-out: D2S221 IC50"}}, "note": "Several values for one entry are separate records, joined by “and”; a condition that tells them apart may be missing. Identical values can stand only once."}
{"compound": "Sunitinib maleate", "values": [{"measurement": "Inhibition of OC43 Virus-Induced CPE in Huh-7 Cells", "setting": "[1]; 0.01 μM, mean of duplicates", "result": 1.1, "unit": "%"}, {"measurement": "Inhibition of OC43 Virus-Induced CPE in Huh-7 Cells", "setting": "[1]; 0.04 μM, mean of duplicates", "result": "−1.2", "unit": "%"}, {"measurement": "Inhibition of OC43 Virus-Induced CPE in Huh-7 Cells", "setting": "[1]; 0.12 μM, mean of duplicates", "result": "−0.1", "unit": "%"}, {"measurement": "Inhibition of OC43 Virus-Induced CPE in Huh-7 Cells", "setting": "[1]; 0.4 μM, mean of duplicates", "result": "−2.4", "unit": "%"}, {"measurement": "Inhibition of OC43 Virus-Induced CPE in Huh-7 Cells", "setting": "[1]; 1.1 μM, mean of duplicates", "result": "−1.0", "unit": "%"}, {"measurement": "Inhibition of OC43 Virus-Induced CPE in Huh-7 Cells", "setting": "[1]; 3.3 μM, mean of duplicates", "result": 17.9, "unit": "%"}, {"measurement": "Inhibition of OC43 Virus-Induced CPE in Huh-7 Cells", "setting": "[1]; 10 μM, mean of duplicates", "result": 21.4, "unit": "%"}, {"measurement": "Inhibition of OC43 Virus-Induced CPE in Huh-7 Cells", "setting": "[1]; 30 μM, mean of duplicates", "result": "−7.8", "unit": "%"}, {"measurement": "EC50", "setting": "[1]; Huh-7 cells, 6 days, neutral red", "result": "> 30", "unit": "µM"}, {"measurement": "Raw OD-Absorbance 490 nm", "setting": "[1]; 0.01 μM", "result": 0.120}, {"measurement": "Raw OD-Absorbance 490 nm", "setting": "[1]; 0.04 μM", "result": 0.094}, {"measurement": "Raw OD-Absorbance 490 nm", "setting": "[1]; 0.4 μM", "result": "0.086 and 0.090"}, {"measurement": "Raw OD-Absorbance 490 nm", "setting": "[1]; 1.1 μM", "result": 0.094}, {"measurement": "Raw OD-Absorbance 490 nm", "setting": "[1]; 3.3 μM", "result": "0.312 and 0.136"}, {"measurement": "Raw OD-Absorbance 490 nm", "setting": "[1]; 10 μM", "result": "0.214 and 0.280"}, {"measurement": "Raw OD-Absorbance 490 nm", "setting": "[1]; 30 μM", "result": "0.051 and 0.053"}, {"measurement": "Viability of Huh-7 Cells (A490)", "setting": "[2]; 0.01 μM, 6 days, individual replicates", "result": "0.721 and 0.651"}, {"measurement": "Viability of Huh-7 Cells (A490)", "setting": "[2]; 0.04 μM, 6 days, individual replicates", "result": "0.738 and 0.751"}, {"measurement": "Viability of Huh-7 Cells (A490)", "setting": "[2]; 0.12 μM, 6 days, individual replicates", "result": "0.719 and 0.752"}, {"measurement": "Viability of Huh-7 Cells (A490)", "setting": "[2]; 0.37 μM, 6 days, individual replicates", "result": "0.732 and 0.765"}, {"measurement": "Viability of Huh-7 Cells (A490)", "setting": "[2]; 1.1 μM, 6 days, individual replicates", "result": "0.676 and 0.665"}, {"measurement": "Viability of Huh-7 Cells (A490)", "setting": "[2]; 3.3 μM, 6 days, individual replicates", "result": "0.642 and 0.601"}, {"measurement": "Viability of Huh-7 Cells (A490)", "setting": "[2]; 10 μM, 6 days, individual replicates", "result": "0.543 and 0.554"}, {"measurement": "Viability of Huh-7 Cells (A490)", "setting": "[2]; 30 μM, 6 days, individual replicates", "result": "0.058 and 0.055"}, {"measurement": "Viability of Huh-7 Cells (A490)", "setting": "[2]; 90 μM, 6 days, individual replicates", "result": "0.053 and 0.054"}, {"measurement": "CC50", "setting": "[2]; read-out: Cytotoxicity (Huh-7 cells) CC50, 6 days, XTT", "result": 13, "unit": "µM"}]}
{"compound": "Nc1ccn([C@@H]2CS[C@H](CO)O2)c(=O)n1", "note": "[Compound 3TC, Lamivudine]", "values": [{"measurement": "CC50", "setting": "[3]", "result": "> 2", "unit": "µM"}, {"measurement": "EC50", "setting": "[4]", "result": 0.0283, "unit": "µM"}, {"measurement": "EC90", "setting": "[4]", "result": "> 2", "unit": "µM"}]}
{"compound": "CCC(CC)COC(=O)[C@H](C)N[P@](=O)(OC[C@H]1O[C@@](C#N)(c2ccc3c(N)ncnn23)[C@H](O)[C@@H]1O)Oc1ccccc1", "note": "[Remdesivir]", "values": [{"measurement": "EC50", "setting": "[5]", "result": 37.5, "unit": "µM"}, {"measurement": "EC50", "setting": "[6]", "result": 0.02, "unit": "µM"}, {"measurement": "EC50", "setting": "[7]", "result": 0.02, "unit": "µM"}, {"measurement": "CC50", "setting": "[8]", "result": 6.17, "unit": "µM"}, {"measurement": "Cytotoxicity", "setting": "[9]", "result": ">20", "unit": "µM"}, {"measurement": "CC50", "setting": "[10]", "result": 27.9, "unit": "µM"}, {"measurement": "EC50", "setting": "[11]", "result": 0.13, "unit": "µM"}, {"measurement": "CC50", "setting": "[12]", "result": "> 2", "unit": "µM"}]}
{"compound": "NC(=O)c1ncn([C@@H]2O[C@H](CO)[C@@H](O)[C@H]2O)n1", "note": "[Ribavirin]", "values": [{"measurement": "IC50", "setting": "[13]", "result": 71.1, "unit": "µM"}]}
{"compound": "CCN(CC)CCCC(C)Nc1ccnc2cc(Cl)ccc12", "note": "(stereo not shown) [Chloroquine]", "values": [{"measurement": "Inhibition of OC43 Virus-Induced CPE in Huh-7 Cells", "setting": "[1]; CQ 5 μM, relative to uninfected cells (mock), listed as CQ", "result": 87.8, "unit": "%"}, {"measurement": "Raw OD-Absorbance 490 nm", "setting": "[1]; CQ 5 μM, listed as CQ", "result": "0.693 and 0.689"}, {"measurement": "Cytotoxicity", "setting": "[9]", "result": 46.04, "unit": "µM"}, {"measurement": "EC50", "setting": "[11]", "result": 0.49, "unit": "µM"}]}
{"compound": "CC[C@H]1CN2CCc3cc(OC)c(OC)cc3[C@@H]2C[C@@H]1C[C@H]1NCCc2cc(OC)c(OC)cc21", "note": "[Emetine]", "values": [{"measurement": "Viability (A490)", "setting": "[2]; 1 μM, percentage viability vs medium only", "result": "18.3 ± 0.3", "unit": "%"}, {"measurement": "Viability (A490)", "setting": "[2]; 1 μM, raw absorbance, individual replicates", "result": "0.176 and 0.179"}, {"measurement": "Viability (A490)", "setting": "[2]; 5 μM, percentage viability vs medium only", "result": "8.2 ± 0.7", "unit": "%"}, {"measurement": "Viability (A490)", "setting": "[2]; 5 μM, raw absorbance, individual replicates", "result": "0.104 and 0.111"}, {"measurement": "cell viability blocked / inhibited", "setting": "[2]; cytotoxic control, XTT, tested at 5 μM", "result": "more than 90%"}]}
{"compound": "CCN(CC)CCCC(C)Nc1ccnc2cc(Cl)ccc12", "note": "(stereo not shown) [Chloroquine diphosphate]", "values": [{"measurement": "IC50", "setting": "[13]", "result": 23.7, "unit": "µM"}]}
{"compound": "C=C1[C@H](CO)[C@@H](O)C[C@@H]1n1cnc2c(=O)[nH]c(N)nc21", "note": "[Entecavir]", "values": [{"measurement": "CC50", "setting": "[3]", "result": "> 1", "unit": "µM"}, {"measurement": "EC50", "setting": "[4]", "result": 0.00044, "unit": "µM"}, {"measurement": "EC90", "setting": "[4]", "result": "> 1", "unit": "µM"}]}
{"compound": "CCN(CC)CCNC(=O)c1c(C)[nH]c(/C=C2\\C(=O)Nc3ccc(F)cc32)c1C", "note": "[Sunitinib]", "values": [{"measurement": "Cytotoxicity", "setting": "[9]", "result": "10 to 50", "unit": "µM"}, {"measurement": "EC50", "setting": "[11]", "result": 0.63, "unit": "µM"}, {"measurement": "CC50", "setting": "[12]", "result": 1.32, "unit": "µM"}, {"measurement": "IC50", "setting": "[13]", "result": 4.06, "unit": "µM"}]}
